Results: US8206762B2, “Use of Echinacea or preparations thereof in compositions for the treatment of anxiety” (priority 2006, dated 2012)
“Also recorded” adds a separate entry of the source.

What was measured:
[1] = test system: humans; conditions: lorazepam 3×1 mg daily; buspirone 3×5 mg daily; cited from earlier work
[2] = test system: Wistar rats; test: Elevated plus-maze test of anxiety; type: in vivo, rat; conditions: FIG. 2
Experimental: For laboratory studies, we used an ethyl alcoholic Echinacea purpurea root tincture prepared by FitoChem Ltd. (H-2200 Monor, 14 Kossuth Str, ww.fitochem.hu), on the 21st of February, 2006 (Lot number FECH-010011205; analytical ID: 052/06). The dry residue was 1.7% w/w, whereas the lead content was less than 10 μg/g. Microbiological analysis provided satisfactory results (e.g. the total plate count was less than 1000 CFU/g). The extract containing 70% ethyl alcohol was stored at room temperature (validity date under these conditions: March, 2007), and used in experiments in April-May, 2006. Before use, ethyl alcohol was evaporated in vacuum at 4° C. by means of a Speed Vac Concentrator (Savant Instruments Inc., Farmingdale, USA). […] The dose was expressed as mg dry residue/kg body weight. […]
This test was described first by Pellow et al. (1984), and later became one of the most popular anxiety tests, frequently used for the identification of putative anxiolytics. […] To avoid confounds with anxiety, the locomotor effects of compounds are evaluated based on closed arm entries (Hogg, 1996).
The elevated plus-maze (arm length 50 cm, arm width 17 cm; wall height 30 cm; platform height 80 cm) was made of dark grey painted wood, and lit by 4 white lamps of 40 W each (approximately 200 lx). […] Behaviors were scored by experimenters blind to treatment conditions by means of a computer based event recorder. […]

[3] = test system: rats; conditions: cited from earlier work
[4] = test system: mice; conditions: cited from earlier work

Row | SMILES | time to significant effects over placebo on State-Trait Anxiety Inventory scores [1] | treatment time to State-Trait anxiety scores lower than 45 [1] | effect on anxiety in mice [4] | other results
1 | O=C1CC2(CCCC2)CC(=O)N1CCCCN1CCN(c2ncccn2)CC1 [buspirone] | 3 weeks | 6 weeks |  | 
2 | CNC1=Nc2ccc(Cl)cc2C(c2ccccc2)=[N+]([O-])C1 [chlordiazepoxide] |  |  |  | locomotor behavior (closed arm entries) / sedation [2]: highly sedative at higher doses; also recorded: significant locomotor suppression
3 | O=C1Nc2ccc(Cl)cc2C(c2ccccc2Cl)=NC1O (centres unmarked) [lorazepam] | one week | three weeks |  | 
4 | Cc1c(C(=O)NN2CCCCC2)nn(-c2ccc(Cl)cc2Cl)c1-c1ccc(Cl)cc1 [SR-141716A] |  |  | anxiolytic | effect on anxiety in rats [3]: anxiogenic
5 | Cc1c(C(=O)NN2CCCCC2)nn(-c2ccc(Cl)cc2Cl)c1-c1ccc(I)cc1 [AM-251] |  |  | anxiogenic | 
